Results published in patent US6469141B1, “D1-like dopamine receptor activity modifying protein” (Medical College of Georgia Research Institute Inc., priority 1998, dated 2002).

How the values were obtained:
[1] = molecular target: T1, GSTD1 (C-terminal 81 residues of hD1 receptor) (Homo sapiens, UniProt P21728); assay: S-agarose pull-down assay with GSTD1 fusion protein; format: binding; conditions: immunoblot with D1 receptor antibodies
T1 construct: C-terminal 81 amino acids of the hD1 receptor (residues 365-446); made in house; host or cells: S-Calcyon: BL21(DE3) E. coli
T1 sequence (P21728 365-446): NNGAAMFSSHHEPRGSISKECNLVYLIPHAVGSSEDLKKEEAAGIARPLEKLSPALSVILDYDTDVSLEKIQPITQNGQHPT
T1 sequence (Q9NYX4 93-217 partner): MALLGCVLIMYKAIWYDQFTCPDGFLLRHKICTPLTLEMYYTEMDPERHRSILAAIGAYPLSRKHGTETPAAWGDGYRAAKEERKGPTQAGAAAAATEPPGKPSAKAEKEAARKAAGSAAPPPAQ
From the text: For pull-down assays, a 550 bp Nco I-Bgl II fragment from pACT-Calcyon was subcloned into pET30a (Novagen, Madison, Wis.) to produce the S-Calcyon fusion protein containing residues 93-217 of the predicted Calcyon protein as well as an N-terminal tag composed of the 15 residue S peptide of ribonuclease S (Richards, F. M., et al., The Enzymes. ed.: Boyer, P. D., Academic Press, N.Y., pp. 647-806 (1971)). The S-β-galactosidase fusion protein was composed of bacterial β-galactosidase protein tagged at its N-terminus with the S peptide. Fusion proteins were induced in BL2I(DE3) E. coli with IPTG, and coupled to S-agarose resin (Novagen, Madison, Wis.) by incubating soluble fractions of bacterial lysates with resin for 1 h at RT Following incubation, unbound proteins were eliminated by washing the resin three times in 50 volumes of 25 mM HEPES (pH 7.4), 50 mM NaCl. Interaction assays were performed with GSTD1 purified as described (Bergson, C., et al., J. Neurosci. 15:7821-36 (1995)) or solubilized lysates of D1 HEK293 cells in 25 mM HEPES (pH 7.4), 50 mM NaCl, 10% glycerol, 1% bovine serum albumin containing 0.5% NP-40. Peptidel 421-435 ([…]) (SEQ ID No. 3) and Peptide2 ([…]) (SEQ ID No. 4) were synthesized using an Applied Biosystems 430A Peptide Synthesizer using the FastMoc procedures and reagents supplied by Perkin-Elmer, Applied Biosystems division. […]

[2] = test system: protein kinase C (PKC); assay: 32P-orthophosphate in vivo labeling and GFP mab immunoprecipitation of EGFP-Calcyon; format: cell-based, human; conditions: 100 nM PMA, 0.5 h
Protocol: Approximately 40 h after transfection, pEGFP or pEGFP-Calcyon transfected D1 HEK293 cells were washed and placed in HBS (phosphate-free media) for 1.5 h prior to addition of [^32P] orthophosphate (135 μCi/ml). 2 h later, cells were treated with 100 nM PMA (Phorbol 12-Myristate 13-Acetate) in HBS for 0.5 h at 37°. Cells were then washed once in cold PBS and solubilized in mild lysis solution (Cytosignal, Irvine, Calif.) containing protease inhibitor cocktail (Boehringer Manheim) and phosphatase inhibitors, 50 μM NaF and 5 μM EGTA. Lysates were centrifuged for 5 min at 14,000 rpm and the supernatant was incubated at RT. for 1 h with mouse anti-GFP mab (Clontech, Palo Alto, Calif.) (diluted 1:100), followed by 0.02 volume of protein A/G agarose slurry for 30 min. The resin was washed twice with mild lysis solution, and adsorbed proteins eluted in SDS PAGE loading buffer (Laemmli, U.K., Nature 227:680-5 (1970)). Samples were analyzed by SDS-PAGE, using a 15% gel (Bio-Rad). The gel was dried and visualized using a Phosphorimager SF (Molecular Dynamics). […]
The Calcyon sequence contains two consensus protein kinase C (PKC) phosphorylation sites within its predicted cytoplasmic domain. […] GFP mab immunoprecipated a ^32P-labeled protein from pEGFP-Calcyon transfected cells with size equal to that detected by Calcyon antibodies. […]

[3] = molecular target: T2, hD1 receptors (Homo sapiens, UniProt P21728); assay: cAMP assay in transfected D1 HEK293 cells; format: cell-based
T2 construct: pLXSN (Clontech) plasmid containing full-length human D1 (Zhou et al., Nature 347:76-80 (1990)); expressed in transfected cells
T2 sequence (P21728 whole entry): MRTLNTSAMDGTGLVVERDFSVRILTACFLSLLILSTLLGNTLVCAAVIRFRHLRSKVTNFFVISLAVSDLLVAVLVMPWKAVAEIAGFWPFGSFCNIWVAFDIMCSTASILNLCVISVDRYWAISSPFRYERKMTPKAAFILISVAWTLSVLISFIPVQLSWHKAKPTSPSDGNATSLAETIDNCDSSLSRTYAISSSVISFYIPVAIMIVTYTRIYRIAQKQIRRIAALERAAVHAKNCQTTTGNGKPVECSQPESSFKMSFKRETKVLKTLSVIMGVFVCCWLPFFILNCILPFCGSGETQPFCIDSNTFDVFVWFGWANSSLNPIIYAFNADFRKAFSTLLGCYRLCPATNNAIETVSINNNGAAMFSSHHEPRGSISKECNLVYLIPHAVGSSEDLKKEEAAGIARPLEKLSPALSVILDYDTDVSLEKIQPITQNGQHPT
Protocol: Following centrifugation to pellet proteins, cAMP levels in supernatant were determined by Direct cAMP Enzyme Immunoassay Kit (Assay Designs, Inc.) according to the supplier's protocol. […] Results (pmol cAMP/mg protein) are reported as average of three independent trans fection experiments.
It was determined whether Calcyon influenced D1 receptor coupling to the cAMP second messenger system in D1 HEK293 cells transfcctcd with expression plasmids encoding either enhanced green fluorescent protein (EGFP), or Calcyon tagged at its N-terminus by EGFP.
(§1) pEGFP-Calcyon was created by inserting a 0.9 kb Eco RI-Xho I fragment encoding full-length Calcyon into pEGFP-C3 (Clontech). pEGFP-C3 and pEGFP-Calcyon plasmid DNAs were transiently transfected into HEK293 and D1 HEK293 cell lines using Effectene™ (Qiagen) according to manufacturer's recommendations. 2.5×10^5 cells were seeded in 6-well plates, and transfected with 0.4:g plasmid DNA/well for Ca^++ imaging, cAMP, and immunoprecipitation assays.

[4] = molecular target: T2, hD1 receptors; assay: Fura-2 Ca++ imaging of D1 receptor-stimulated Ca++i release in D1 HEK293 cells; format: cell-based; conditions: for effect of PKC inhibitor on SKF81297-induced Ca++ mobilization: EGFP-Calcyon expressing D1 HEK293 cells, HCl
Protocol: For Ca^++ imaging, cells were rinsed with HBS (150 mM NaCl, 10 mM NaHEPES, 10 mM glucose, 2.5 mM KCI, 4 mM CaCl2 and 2 mM MgCl2, pH 7.4) and then loaded with 5 μM Fura-2 AM (Molecular Probes) in HBS at RT. After 20 min, cells were washed three times with HBS. Assays were performed at RT in 1.5 ml of HBS. Drugs were prepared in HBS and manually applied. […] Images were collected with a CCD camera connected to a Silicon Graphics workstation, and analyzed with Inovision-Ratiotool 4.3.5. Transfected cells were identified by illumination at 490 nm, and selected as areas for analysis. […] Fluorescence emission at 510 nm was monitored for each excitation wavelength via the CCD camera at 10 s intervals. Average pixel intensities within 6-8 selected areas (each area corresponded to single transfected cell) for both wavelengths at each time point were digitized and stored on the computer.
Changes in Ca^++i levels were measured using ratiofluorometric imaging following bath application of ligand. […] In vivo, DA is considered primarily to be a neuromodulator. Therefore, to test whether Calcyon plays a role in the D1 receptor's ability to modulate other stimuli, we applied agonists of endogenous GPCRs prior to stimulating D1 receptors.
as §1

[5] = test system: endogenous P2Y purinergic receptors; assay: Fura-2 Ca++ imaging, P2Y receptor-stimulated Ca++i release in D1 HEK293 cells; format: cell-based, human
Protocol: Drugs were prepared in HBS and manually applied.
Changes in Ca^++i levels were measured using ratiofluorometric imaging following bath application of ligand. Application of DA or 10:M […] produced no detectable response in untransfected D1 HEK293 cells, or cells expressing either EGFP or EGFP-Calcyon. In vivo, DA is considered primarily to be a neuromodulator. Therefore, to test whether Calcyon plays a role in the D1 receptor's ability to modulate other stimuli, we applied agonists of endogenous GPCRs prior to stimulating D1 receptors. […].

[6] = molecular target: D1 receptor (Homo sapiens, UniProt P21728); assay: D1 receptor response to dopamine in presence of P24; conditions: effect of P24
D1 receptor, sequence (P21728 whole entry): as above

[7] = molecular target: T3, D1 DA receptors (Homo sapiens, UniProt P21728); assay: co-immunoprecipitation with GFP mab from transfected D1-HEK293 cells; format: binding
T3 construct: pLXSN (Clontech) plasmid containing full-length human D1 (Zhou et al., Nature 347:76-80 (1990)); expressed in transfected cells; host or cells: D1-HEK293 cells, transiently transfected with pEGFP-P24
T3 sequence (P21728 whole entry): as above
From the text: A series of experiments were then undertaken to functionally characterize the interaction between P24 and D1 receptor proteins. D1-HEK293 cells, a HEK293 cell line that expresses hD1 receptors, and pEGFP-P24 expression plasmid were used for these studies. pEGFP-P24 encodes P24 protein tagged at its N-terminus by enhanced green fluorescent protein (EGFP). The N-terminal EGFP tag allowed testing to determine whether P24 directly associates with D1 DA receptors when coexpressed in mammalian cells in a “pull-down” assay. D1 receptors co-immunoprecipitated with EGFP-P24 fusion protein transiently expressed in transfected D1-HEK293 cells, and were “pulled down” by GFP mab.

SVILDYDTDVSLEKI (listed as Homo sapiens) [Pep421-435]
block of interaction between GSTD1 and S-Calcyon by peptide [1]: prevented detection of the immunoreactive GSTD1 band

CCCCCCCCCCCCCC(=O)O[C@@H]1[C@@H](C)[C@@]2(O)[C@@H](C=C(CO)C[C@]3(O)C(=O)C(C)=C[C@@H]23)[C@@H]2C(C)(C)[C@]12OC(C)=O [PMA, phorbol 12-myristate 13-acetate]
32P label incorporated into immunoprecipitated EGFP-Calcyon, treated vs untreated cells [2]: approximately five times more label incorporated

CN(C)CCCn1cc(C2=C(c3c[nH]c4ccccc34)C(=O)NC2=O)c2ccccc21.Cl [bisindolylmaleimide I HCl]
cAMP levels stimulated by ATP and SKF81297, BisI-treated compared to untreated cells [3]: similar
effect of PKC inhibitor on SKF81297-induced Ca++ mobilization [4]: considerably attenuated
effect of PKC inhibitor on SKF81297-induced Ca++ mobilization ([4]; listed as bisindolylmalemide): inhibits Calcyon-enabled D1 stimulated Cai^++ release
effect of PKC inhibitor on D1 receptor-stimulated Ca++i release ([4]; EGFP-Calcyon expressing cells treated with carbachol): reduced D1 receptor-stimulated Ca^++i release

Nc1ncnc2c1ncn2[C@@H]1O[C@H](COP(=O)(O)OP(=O)(O)OP(=O)(O)O)[C@@H](O)[C@H]1O [ATP]
Ca++i response ([5]; D1 HEK293 cells): produced a rise in Ca^++i
duration of P2Y receptor Ca++i response ([5]; EGFP expressing cells): 300 to 400 s
duration of P2Y receptor Ca++i response ([5]; EGFP-Calcyon expressing cells, following application of BisI): 300 to 400 s

B1: Calcyon: 217 residue single transmembrane protein encoded by K 37 cDNA (SEQ ID No. 1) that interacts with the hD1 DA receptor (protein)
chain: MVKLGCSFSGKPGKDPGDQDGAAMDSVPLISPLDISQLQPPLPDQVVIKTQTEYQLSSPDQQNFPDLEGQRLNCSHPEEGRRLPTARMIAFAMALLGCVLIMYKAIWYDQFTCPDGFLLRHKICTPLTLEMYYTEMDPERHRSILAAIGAYPLSRKHGTETPAAWGDGYRAAKEERKGPTQAGAAAAATEPPGKPSAKAEKEAARKAAGSAAPPPAQ
modifications: D1-Like dopamine receptor activity modifying protein
effect of Calcyon expression on D1 receptor-stimulated cAMP ([3]; DA-stimulated cAMP, EGFP vs EGFP-Calcyon cells): does not alter D1 receptor activation of cAMP-dependent signaling pathways
threshold of D1 receptor response to dopamine [6]: lowers the threshold of D1 receptor response to dopamine (DA) by an order of magnitude
effect of Calcyon expression on D1 receptor-stimulated Ca++i mobilization ([4]; EGFP-Calcyon vs EGFP expressing cells, D1 agonist after ATP): enhance the ability of D1 receptors to mobilize Ca^++i

B2: EGFP-P24: P24 protein tagged at its N-terminus by enhanced green fluorescent protein (protein)
chain: B1 chain
modifications: left off: large carriers
co-immunoprecipitation of D1 receptors [7]: co-immunoprecipitated
